Test results from ChEMBL document CHEMBL3886504, “Pyridinones/pyrazinones, method of making, and method of use thereof” (2016).

Target: Tyrosine-protein kinase BTK (Homo sapiens, UniProt Q06187)
Assay: Biochemical Btk Assay: A generalized procedure for a standard biochemical Btk Kinase Assay that can be used to test Formula I compounds is as follows. A master mix minus Btk enzyme is prepared containing 1x Cell Signaling kinase buffer (25 mM Tris-HCl, pH 7.5, 5 mM beta-glycerophosphate, 2 mM dithiothreitol, 0.1 mM Na3VO4, 10 mM MgCl2), 0.5 μM Promega PTK Biotinylated peptide substrate 2, and 0.01% BSA. A master mix plus Btk enzyme is prepared containing 1x Cell Signaling kinase buffer, 0.5 μM PTK Biotinylated peptide substrate 2, 0.01% BSA, and 100 ng/well (0.06 mU/well) Btk enzyme. Btk enzyme is prepared as follows: full length human wildtype Btk (accession number NM-000061) with a C-terminal V5 and 6xHis tag was subcloned into pFastBac vector for making baculovirus carrying this epitope-tagged Btk.

Tyrosine-protein kinase BTK, sequence (Q06187 whole entry): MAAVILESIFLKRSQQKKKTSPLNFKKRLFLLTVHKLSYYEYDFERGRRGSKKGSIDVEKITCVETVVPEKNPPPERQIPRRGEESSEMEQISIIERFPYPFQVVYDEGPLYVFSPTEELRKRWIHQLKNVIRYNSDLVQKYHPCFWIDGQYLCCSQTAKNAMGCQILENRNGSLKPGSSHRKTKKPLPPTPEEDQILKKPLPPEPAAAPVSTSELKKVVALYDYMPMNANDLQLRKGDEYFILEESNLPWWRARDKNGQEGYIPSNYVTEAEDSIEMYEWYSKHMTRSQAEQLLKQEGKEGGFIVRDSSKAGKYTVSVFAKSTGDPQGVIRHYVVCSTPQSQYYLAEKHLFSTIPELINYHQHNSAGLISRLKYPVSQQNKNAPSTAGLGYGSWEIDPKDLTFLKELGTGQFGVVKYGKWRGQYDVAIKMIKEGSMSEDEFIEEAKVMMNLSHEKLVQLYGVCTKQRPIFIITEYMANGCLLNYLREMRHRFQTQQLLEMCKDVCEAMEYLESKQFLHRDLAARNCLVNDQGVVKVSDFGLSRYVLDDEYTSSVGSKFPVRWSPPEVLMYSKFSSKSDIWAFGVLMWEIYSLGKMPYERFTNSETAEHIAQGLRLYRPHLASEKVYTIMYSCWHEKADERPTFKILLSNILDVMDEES

| SMILES | IC50 |
| --- | --- |
| Cc1c(-c2cn(C)c(=O)c(Nc3ccc(C4C(=O)N(C)CCN4C)cc3)n2)cccc1N1Cc2cc(N3CCCCC3)ccc2C1=O (stereo not drawn) | 245 nM |
| Cc1c(-c2cn(C)c(=O)c(Nc3ccc(C(=O)N4CCOCC4)cc3)n2)cccc1N1Cc2cc(C(C)(C)C)ccc2C1=O | 36.4 nM |
| Cc1c(-c2cn(C)c(=O)c(Nc3ccc(C4C(=O)N(C)CCN4C)cc3)n2)cccc1N1Cc2cc(C(C)(C)C)ccc2C1=O (stereo not drawn) | 29.4 nM |
